One data set addresses T1, CCR-3 receptor (Homo sapiens, UniProt P51677).
T1 construct: expressed in transfected cells; host or cells: L1.2 (murine pre-beta lymphoma line) transfected with CCR-3
T1 sequence (P51677 1-355): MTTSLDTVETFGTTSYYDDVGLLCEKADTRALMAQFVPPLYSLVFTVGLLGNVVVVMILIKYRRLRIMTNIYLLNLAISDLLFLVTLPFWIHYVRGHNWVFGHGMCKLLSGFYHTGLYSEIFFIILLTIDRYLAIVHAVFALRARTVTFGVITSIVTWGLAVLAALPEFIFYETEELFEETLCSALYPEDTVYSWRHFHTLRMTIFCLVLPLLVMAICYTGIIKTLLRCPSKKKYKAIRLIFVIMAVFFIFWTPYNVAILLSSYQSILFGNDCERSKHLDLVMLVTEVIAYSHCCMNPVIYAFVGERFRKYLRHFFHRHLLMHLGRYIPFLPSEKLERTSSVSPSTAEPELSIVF
In words: CCR-3 receptor binding assay, inhibition of 125I eotaxin binding to CCR-3 L1.2 transfectant cells. The settings on record: inhibition of 125I-eotaxin binding to CCR-3 L1.2 transfected cells, 1 hour at rt. The protocol: CCR-3 Receptor Binding Assay—In Vitro
The CCR-3 antagonistic activity of the compounds of the invention was determined by their ability to inhibit the binding of ^125I eotaxin to CCR-3 L1.2 transfectant cells (see Ponath, P. D. et al., J. Exp. Med., 183:2437–48, (1996)).
The assay was performed in Costar 96-well polypropylene round bottom plates. Test compounds were dissolved in DMSO and then diluted with binding buffer (50 mM HEPES, 1 mM CaCl2, 5 mM MgCl2, 0.5% bovine serum albumin (BSA), 0.02% sodium azide, pH 7.24) such that the final DMSO concentration was 2%. 25 μl of the test solution or only buffer with DMSO (control samples) was added to each well, followed by the addition of 25 μl of ^125I-eotaxin ([…]) (NEX314, New England Nuclear, Boston, Mass.) and 1.5×10^5 of the CCR-3 L1.2 transfected cells in 25 μl binding buffer. The final reaction volume was 75 μl.
After incubating the reaction mixture for 1 hour at rt, the reaction was terminated by filtering the reaction mixture through a polyethylenimine-treated Packard Unifilter GF/C filter plate (Packard, Chicago, Ill.). The filters were washed four times with ice cold wash buffer containing 10 mm HEPES and 0.5 M sodium chloride (pH 7.2) and dried at 65° C. for approximately 10 minutes. 25 μl/well of Microscint-20® scintillation fluid (Packard) was added and the radioactivity retained on the filters was determined by using the Packard TopCount®
Compounds of this invention were active in this assay.

The compound `Cc1c(CN2CC3CCC2CC3Cc2ccc(Cl)c(Cl)c2)c(=O)n(-c2ccccc2)n1C` (stereo not shown) [Example 2, 4-[5-(3,4-Dichloro-benzyl)-2-aza-bicyclo[2.2.2]oct-2-ylmethyl]-1,5-dimethyl-2-phenyl-1,2-dihydro-pyrazol-3-one] showed an IC50 at CCR-3 receptor of 331 nM.

Compound `Cc1c(CN2C3CCC2CC(Cc2ccc(Cl)c(Cl)c2)C3)c(=O)n(-c2ccccc2)n1C` (stereo not shown) [Example 6, 4-[3-(3,4-dichloro-benzyl)-8-aza-bicyclo[3.2.1]oct-8-ylmethyl]-1,5-dimethyl-2-phenyl-1,2-dihydro-pyrazol-3-one] had an IC50 at CCR-3 receptor of 965 nM.

`COc1cc(NC(=O)N[C@@H](CN2C3CCC2CC(Cc2ccc(Cl)cc2)C3)[C@@H](C)O)cc(OC)c1OC` (stereo partly shown) [Example 7] registered a melting point of 118 to 123 °C. In addition, the IC50 on CCR-3 receptor worked out at 8.2 nM.

Usually IC50 stands for the point on the concentration scale where inhibition reaches its midpoint. High values mean weaker potency, low ones greater potency. For orientation: melting point means the temperature, or range, at which the solid turns liquid.

For the origin of these results see US7081531B2, “Bridged bicyclic amine derivatives useful as CCR-3 receptor antagonists” (Roche Palo Alto LLC, priority 2003, dated 2006).
